Common to all, as to test: inhibition of tumour cell growth, NCI panel, 48 h
The subject of test [1] is HCC-2998 colon.
Test [2] relates to HL-60(TB) leukemia.
Test [3] has as its system MOLT-4 leukemia.
Test [4] has as its system NCI/ADR-RES ovarian.
For test [5], the system named is OVCAR-4 ovarian.
Test [6] relates to SF-295 CNS.
Test [7] concerns UACC-62 melanoma.
For test [8], the system named is IGROV1 ovarian.
Test [9] has as its system SK-OV-3 ovarian.
Test [10] relates to TK-10 renal.

The results in this text go back to PubChem BioAssay (NCI).

SMILES strings stand for the structures. Where “and” joins values, the source holds several entries; their conditions need not be identical. Equal entries are not always repeated.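 1) Cells in 96-well plates. 2) Compound, 48 h, 5 concentrations. 3) Linear interpolation between surrounding doses. 4) Unreached endpoint = highest concentration. The concentration for 50% growth inhibition is given as GI50. Definition used: TGI = concentration required for complete inhibition of growth.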

With `CC(C)(C)OC(=O)CC(NC(=O)OCc1ccccc1)NC(=O)OC(C)(C)C` (configuration not stated), the GI50 in test [1] was 94.4 µg/mL; in [2], 20.8 µg/mL; in test [3], 23.5 µg/mL; in test [4], 33.5 µg/mL; in [5], 78.9 µg/mL; in test [6] it was 46.2 µg/mL. Besides, the GI50 in test [7] was 57.2 µg/mL. In addition, the values for the TGI in [2] and in [3] were 50.7 µg/mL and 55.6 µg/mL, respectively.

On to `C/C=C(/CCC1NCCc2c1[nH]c1ccccc21)[Si](C)(C)C` (configuration not stated), for which the TGI in [8] is > 100 µM and 21.1 µM; in test [5], > 100 µM and 11.9 µM; in [6], > 100 µM and 19.2 µM; in [9], > 100 µM and 26.2 µM; in test [10] it was > 100 µM and 24.8 µM; in test [7] it was > 100 µM and 26.5 µM. In addition, the GI50 in test [10] is > 100 µM and 12.2 µM.

For the molecule `CC(=O)Nc1ccc2c(c1)C(=O)c1ccccc1-2`, the TGI in [1], in [2], in test [8], in test [3], in [6] and in test [9] was more than 100 µM each time. The TGI in test [10] and in [7] was more than 100 µM throughout.

With `COC(=O)C1=C(O)C(C(=O)OC)[C@@]2(O)[C@@H](C(=O)OC)[C@H](C)C[C@@H]1[C@@H]2C(=O)OC` (some centres not stated), the TGI in test [1] was 30.9 µM; in test [2] it was 73.8 µM; in test [3] it was more than 100 µM; in [9], 72.9 µM; in test [10], more than 100 µM; in test [7], more than 100 µM.

On to `CC(C)(CCCCC(C)(C)NC1=NCCO1)NC1=NCCO1`, for which the TGI in test [1], in [2], in test [8], in test [3], in [4] and in [5] was more than 10 µM each time. In addition, the TGI in [6], in test [9], in test [10] and in test [7] was more than 10 µM each time.

For the molecule `CCOC(=O)c1c(Cl)c2c(n1Cc1ccccc1)-c1oncc1CCC2`, the GI50 is 3.32 µM in test [2]; 4.39 µM in test [8]; 3.58 µM in test [3]; 2.83 µM in [4]; more than 100 µM in test [6]; more than 100 µM in test [9]. The results for the GI50 in [10] and in test [7] were more than 100 µM and 4.01 µM, respectively. For the same molecule, the TGI in test [2], in test [8], in test [3], in test [4], in [6] and in test [9] was more than 100 µM each time. For the same molecule, the TGI in test [10] and in test [7] was more than 100 µM each time.

With `COC(=O)C(C)NP(=O)(OCc1cccc(Cn2cnc3c(N)ncnc32)c1)Oc1ccccc1` (configuration not stated), the GI50 in [1] is 10.9 µM; in [2], 46.8 µM; in [8], more than 100 µM; in test [3], 38.3 µM; in test [4] it was more than 100 µM; in test [5], more than 100 µM. Besides, the values for the GI50 in test [6], in test [10] and in test [7] were more than 100 µM, more than 100 µM and 56.3 µM, respectively. The TGI in test [1] was 53.7 µM; in test [2], more than 100 µM; in [8] it was more than 100 µM; in [3] it was more than 100 µM; in test [4], more than 100 µM; in test [5], more than 100 µM. In addition, the TGI in test [6], in test [10] and in [7] was more than 100 µM in each case.

For the molecule `O=[N+]([O-])c1ccc(N/N=C\c2cc(Br)ccc2O)nc1`, the GI50 in [1] was 3.18 µM; in test [2], 0.314 µM; in [8] it was 1.05 µM; in test [3], 0.347 µM; in test [5] it was 0.543 µM; in [6] it was 1.05 µM. In addition, the results for the GI50 in test [9] and in test [7] were 1.27 µM and 1.86 µM, respectively. The TGI in test [1] is more than 100 µM; in [2], more than 100 µM; in [8], 3.44 µM; in test [3] it was 23.9 µM; in [5] it was 4.02 µM; in test [6] it was 3.11 µM. Besides, the TGI came to 12 µM in test [9] and 6.15 µM in test [7].

As for `NS(=O)(=O)c1c(O)c2ccccc2oc1=O`, the TGI in test [1], in test [2], in test [8], in test [3], in [4] and in test [5] was more than 100 µM each time. For the same molecule, the TGI in [6], in test [10] and in [7] was more than 100 µM in each case.

For `NCCCCNOCCCN`, the TGI in test [1], in [8], in test [3], in test [4], in test [5] and in [6] was more than 100 µM each time. In addition, the TGI in test [9], in test [10] and in test [7] was more than 100 µM each time.

Consider `O=S1(=O)C(=C(c2ccccc2)c2ccccc2)S(=O)(=O)c2ccccc21`, for which the TGI in test [1], in test [2], in test [8], in test [3], in test [4] and in [5] was more than 100 µM in each case. Also, the values for the TGI in test [6], in test [9] and in test [7] were more than 66.4 µM, more than 100 µM and more than 100 µM, respectively.
